Experimental data from patent US20190350200A1, “SYNERGISTIC ANTIMICROBIAL COMPOSITIONS” (JUBILANT LIFE SCIENCES LIMITED, priority 2016, published 2019).

Tested on: Malassezia furfur
Assay: Zone of inhibition, disc diffusion method
Assay type: cell-based
Conditions: antimicrobial active alone, 37° C., 48 hrs; for zone of inhibition at […] strength / zone of inhibition at 0.5 % strength / zone of inhibition at 1 % strength / zone of inhibition at 2 % strength: Malassezia furfur; for zone of inhibition at […] strength: 0.25 % w/w
Description: The antimicrobial efficacy was determined by measuring zone of inhibition using disc diffusion method against E. Coli, Malassezia furfur, Pseudomonas, Aspergillus niger, Staphylococcus and Candida. […] The culture plates were incubated at 37° C. for 48 hrs and anti-microbial activity was evaluated by observing an area of no growth around the disc. An area of no growth around the swatch is known as a zone of inhibition.

Compound | zone of inhibition at […] strength [mm] | zone of inhibition at 0.5 % strength (0.5 % w/w) [mm] | zone of inhibition at 1 % strength (1 % w/w) [mm] | zone of inhibition at 2 % strength (2 % w/w) [mm] | Zone of inhibition (0.5 % w/w) [mm] | Zone of inhibition (1 % w/w) [mm] | Zone of inhibition (2 % w/w) [mm] | Zone of inhibition ([…] w/w) [mm]
Cc1cc(C2CCCCC2)n(O)c(=O)c1 [Ciclopirox Olamine] | 18 | 18 | 20 | 22 | – | – | – | –
CC(C)(C)C(=O)C(Oc1ccc(Cl)cc1)n1ccnc1 (stereo not drawn) [Climbazole] | 20 | 40 | 40 | 42 | – | – | – | –
CC(=O)N1CCN(c2ccc(OCC3COC(Cn4ccnc4)(c4ccc(Cl)cc4Cl)O3)cc2)CC1 (stereo not drawn) [Ketoconazole] | 40 | 40 | 40 | 40 | – | – | – | –
Cc1cc(CC(C)CC(C)(C)C)n(O)c(=O)c1.NCCO (stereo not drawn) [Octopirox] | – | – | – | – | 14 | 18 | 20 | 10
O=C(O)c1ccccc1O [Salicylic Acid] | – | – | 4 | 6 | – | – | – | –
